Data from BindingDB's records for patent US11912693 (Trevena, 2024).

Assays:
[1] = target: T1, Sphingosine 1-phosphate receptor 1 (Homo sapiens, UniProt P21453); assay: Detecting Inhibition of cAMP Production
Experimental: Agonist-promoted G-protein responses were determined by measuring changes in intracellular cAMP using the HTRF cAMP HiRange kit (CisBio, Cat #: 62AM6PEJ) based on time-resolved fluorescence resonance energy transfer (TR-FRET) technology. […] Following a 30-minute incubation at 37 C. and 5% CO2 in a humidified CO2 and temperature-controlled incubator, the components of the cAMP HiRange kit were added as per the manufacturer's instructions. After an hour incubation at room temperature, plates were analyzed by a BMG PheraStar microplate reader.

[2] = target: T1, Sphingosine 1-phosphate receptor 1; assay: Beta-Arrestin2 Recruitment Assay
Experimental: Agonist-promoted β-arrestin2 recruitment to the sphingosine-1-phosphate 1 receptor was determined using the β-arrestin PathHunter ) Detection kit (DiscoverX Corporation, Cat #: 93-0001). […] In cells that stably express these fusion proteins, stimulation with a cognate agonist results in the interaction of 0-arrestin2 and the Prolink -tagged GPCR. This allows the complementation of the two β-galactosidase fragments and results in the formation of a functional enzyme with β-galactosidase activity. […] Following a 60 minute incubation at 37 C. and 5% CO2 in a humidified CO2 and temperature-controlled incubator, the components of the β-arrestin PathHunter Detection kit were added as per the manufacturer's instructions. After an hour incubation at room temperature, plates were analyzed by a BMG PheraStar microplate reader.

T1 sequence (P21453 whole entry): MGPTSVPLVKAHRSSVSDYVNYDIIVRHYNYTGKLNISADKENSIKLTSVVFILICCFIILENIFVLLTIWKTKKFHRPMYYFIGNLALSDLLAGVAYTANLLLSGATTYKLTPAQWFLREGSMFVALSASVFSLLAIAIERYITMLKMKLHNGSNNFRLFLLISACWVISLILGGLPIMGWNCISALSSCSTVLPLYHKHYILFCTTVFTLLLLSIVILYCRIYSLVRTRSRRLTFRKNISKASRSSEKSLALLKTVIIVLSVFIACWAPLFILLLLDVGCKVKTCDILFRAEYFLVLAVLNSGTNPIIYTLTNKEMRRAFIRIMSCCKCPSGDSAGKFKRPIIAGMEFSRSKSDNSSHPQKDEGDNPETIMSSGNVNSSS

SMILES	EC50 [1]	EC50 [2]
Cc1cc(-c2noc(-c3ccc4c(c3)nnn4C3CCCC3)n2)ccn1 [US11912693, Compound 77]	> 0.316 µM	> 10 µM
CC(C)n1nnc2cc(-c3nc(-c4ccccc4Cl)co3)ccc21 [US11912693, Compound 163]	< 0.316 µM	< 10 µM
CC(C)N1NNc2cc(-c3nc(-c4sccc4Cl)co3)ccc21 [US11912693, Compound 463]	< 0.316 µM	< 10 µM
CC(C)N1NNc2cc(-c3nc(-c4cccnc4Cl)no3)ccc21 [US11912693, Compound 499]	< 0.316 µM	< 10 µM
Cc1ccccc1-c1nc(-c2ccc3c(c2)NNN3CC(C)(C)O)no1 [US11912693, Compound 593]	< 0.316 µM	< 10 µM
CC(C)N1NNc2cc(-c3nc(-c4cn[nH]c4)no3)ccc21 [US11912693, Compound 646]	> 0.316 µM	> 10 µM

The remaining lines, values ahead:

EC50 [1]	EC50 [2]	SMILES
< 0.316 µM	< 10 µM	Cc1cc(-c2noc(-c3ccc4c(c3)NNN4C(C)C)n2)c(C)o1 [US11912693, Compound 490]
< 0.316 µM	< 10 µM	Cc1occc1-c1noc(-c2ccc3c(c2)NNN3C(C)C)n1 [US11912693, Compound 491]
> 0.316 µM	> 10 µM	Cc1cc(-c2noc(-c3ccc4c(c3)NNN4CC(C)(C)O)n2)c(C)o1 [US11912693, Compound 493]
